Among the data in ChEMBL document CHEMBL1134888, “Preliminary structure-antiangiogenic activity relationships of 4-senecioyloxymethyl-6,7-dimethoxycoumarin” (Bioorg Med Chem Lett, 2002) are IC50 and inhibition values, retold here.

Molecules are shown by their SMILES. Converted amounts (≈) assume the structure as drawn. Some results are limits rather than exact numbers.

As a reminder, the IC50 is the concentration that gives 50% inhibition. One may read the inhibition as the share of the control response that was lost under treatment. A higher inhibition goes with a response far below the control.

Assay [1] has as its system HCT-116. Nature of the assay: In vitro inhibition of HCT116 (human colon) tumor cell growth. The class given is functional, cell-based.
Assay [2] concerns B16. Nature of the assay: In vitro inhibition of B16 (murine melanoma) tumor cell growth. The settings on record: Mus musculus.
The test system of assay [3] is HUVEC (Homo sapiens). Nature of the assay: Inhibitory percentage in HUVEC tube formation assay at a concentration of 3 ug/mL; Inactive.
For assay [4], the system named is HUVEC (Homo sapiens). Nature of the assay: Inhibitory percentage in HUVEC tube formation assay at a concentration of 1 ug/mL (toxic).
The subject of assay [5] is HUVEC (Homo sapiens). Nature of the assay: Inhibitory percentage in HUVEC tube formation assay at a concentration of 3 ug/mL (toxic).
Assay [6] deals with B16. Nature of the assay: Concentration required for 50% reduction in B16 tumor cell growth (murine melanoma) was measured; NA denotes […].
Assay [7] deals with HCT-116. In words: Concentration required for 50% reduction in HCT116 tumor cell growth (Human colon) was measured; NA denotes […]. The class given is functional, cell-based.

For the compound `CC(C)=CC(=O)OCc1cc(=O)oc2cc3ccccc3cc12`, the IC50 with HCT-116 [1] and in the assay on B16 [2] was more than 10 µg/mL throughout.

As for `COc1cc2oc(=O)cc(COC(=O)/C=C/c3ccc(Cl)cc3)c2cc1OC`, the IC50 with HCT-116 [1] and with B16 [2] was more than 10 µg/mL throughout.

Take `C/C=C/C(=O)OCc1cc(=O)oc2cc(OC)c(OC)cc12`: the half-maximal inhibitory concentration (IC50) with HCT-116 [1] and in the assay on B16 [2] was more than 10 µg/mL each time. The inhibition at 3 µg/mL in the assay with HUVEC (Homo sapiens) [3] was less than 10%.

Turning to `COc1cc2oc(=O)cc(COC(=O)/C=C/c3ccc(N)cc3)c2cc1OC`, the IC50 in the assay with HCT-116 [1] and in the assay with B16 [2] was more than 10 µg/mL throughout.

Regarding `COc1cc2oc(=O)cc(COC(=O)/C=C/c3ccc(O)cc3)c2cc1OC`, the 50% inhibitory concentration (IC50) was 5.21 µg/mL (≈ 13.6 µM) in the assay with HCT-116 [1] and 4.15 µg/mL (≈ 10.9 µM) in the assay with B16 [2].

As for `COc1cc2oc(=O)cc(COC(=O)/C=C/c3cc(OC)c(OC)c(OC)c3)c2cc1OC`, the half-maximal inhibitory concentration (IC50) in the assay with HCT-116 [1] was found to be 8.31 µg/mL (≈ 18.2 µM); with B16 [2], 6.74 µg/mL (≈ 14.8 µM).

`Br.COc1ccc(/C=C/C(=O)OCc2cc(=O)oc3cc(OC)c(OC)cc23)cn1`: the IC50 was 2.43 µg/mL in the assay with HCT-116 [1] and 1.27 µg/mL in the assay on B16 [2].

Turning to `COc1cc2oc(=O)cc(COC(=O)/C=C/c3ccc(OCCN(C)C)cc3)c2cc1OC.Cl`, the IC50 in the assay on HCT-116 [1] and with B16 [2] was more than 10 µg/mL each time.

`COc1cc2oc(=O)cc(COC(=O)/C=C/c3ccccc3)c2cc1OC`: the IC50 in the assay with HCT-116 [1] and in the assay with B16 [2] was more than 10 µg/mL throughout.

In the case of `CC(C)=CC(=O)OCc1cc(=O)oc2ccc(Cl)cc12`, the 50% inhibitory concentration (IC50) in the assay on HCT-116 [1] and in the assay on B16 [2] was more than 10 µg/mL each time.

Consider `COc1ccc(/C=C/C(=O)OCc2cc(O)nc3cc(OC)c(OC)cc23)cc1`, for which the concentration for half-maximal inhibition (IC50) with HCT-116 [1] and with B16 [2] was more than 10 µg/mL throughout.

Turning to `COc1ccc2oc(=O)cc(COC(=O)C=C(C)C)c2c1`, the 50% inhibitory concentration (IC50) in the assay with HCT-116 [1] and in the assay with B16 [2] was more than 10 µg/mL throughout. The inhibition at 3 µg/mL in the assay with HUVEC (Homo sapiens) [3] was less than 10%.

Turning to `C=CC(=O)OCc1cc(=O)oc2cc(OC)c(OC)cc12`, the IC50 in the assay on HCT-116 [1] and with B16 [2] was more than 10 µg/mL in each case. The compound further yielded an inhibition at 3 µg/mL in the assay with HUVEC (Homo sapiens) [3] of less than 10%.

`COc1cc2oc(=O)cc(COC(=O)C=C(C)C)c2cc1OC`: the 50% inhibitory concentration (IC50) with HCT-116 [1] and in the assay with B16 [2] was more than 10 µg/mL throughout.

With `COc1ccc2c(COC(=O)C=C(C)C)cc(=O)oc2c1`, the concentration for half-maximal inhibition (IC50) in the assay on HCT-116 [1] and in the assay on B16 [2] was more than 10 µg/mL each time. Besides, the inhibition at 3 µg/mL in the assay with HUVEC (Homo sapiens) [3] was less than 10%.

`COc1ccc(/C=C/C(=O)OCc2cc(=O)oc3cc(OC)c(OC)cc23)cc1`: the IC50 in the assay with HCT-116 [1] came to 1.02 µg/mL (≈ 2.57 µM); with B16 [2], 0.96 µg/mL (≈ 2.42 µM). Also, the inhibition at 1 µg/mL in the assay on HUVEC (Homo sapiens) [4] is 100%.

Turning to `CC(C)=CC(=O)OCc1cc(=O)oc2cc3c(cc12)OCO3`, the IC50 in the assay with HCT-116 [1] and in the assay on B16 [2] was more than 10 µg/mL each time.

For the compound `COc1ccc(/C=C/C(=O)OCc2cc(=O)oc3cc(OC)c(OC)cc23)cc1O`, the IC50 in the assay on HCT-116 [1] stood at 3.41 µg/mL (≈ 8.27 µM); in the assay on B16 [2], 3 µg/mL (≈ 7.27 µM). Moreover, the inhibition at 3 µg/mL with HUVEC (Homo sapiens) [5] is 35.5%.

For the compound `COc1cccc2c1C(=O)c1c(O)c3c(c(O)c1C2=O)C[C@@](O)(C(=O)CO)C[C@@H]3O[C@H]1C[C@H](N)[C@H](O)[C@H](C)O1` [DOXORUBICIN], the IC50 was determined as 0.11 µg/mL (≈ 0.202 µM) with HCT-116 [1] and 0.09 µg/mL (≈ 0.166 µM) with B16 [2].

For `Cc1ccc(C(=O)Nc2ccc(S(=O)(=O)O)c3cc(S(=O)(=O)O)cc(S(=O)(=O)O)c23)cc1NC(=O)c1cccc(NC(=O)Nc2cccc(C(=O)Nc3cc(C(=O)Nc4ccc(S(=O)(=O)O)c5cc(S(=O)(=O)O)cc(S(=O)(=O)O)c45)ccc3C)c2)c1` [SURAMIN], the IC50 entry in the assay on B16 [6] and with HCT-116 [7] was “Not Active” throughout.
